pIC50: −log10 of the molar value.
Target: T1, human adrenaline α1A receptor (Homo sapiens, UniProt P35348)
T1 construct: expressed in transfected cells; membrane fraction
T1 sequence (P35348 1-466): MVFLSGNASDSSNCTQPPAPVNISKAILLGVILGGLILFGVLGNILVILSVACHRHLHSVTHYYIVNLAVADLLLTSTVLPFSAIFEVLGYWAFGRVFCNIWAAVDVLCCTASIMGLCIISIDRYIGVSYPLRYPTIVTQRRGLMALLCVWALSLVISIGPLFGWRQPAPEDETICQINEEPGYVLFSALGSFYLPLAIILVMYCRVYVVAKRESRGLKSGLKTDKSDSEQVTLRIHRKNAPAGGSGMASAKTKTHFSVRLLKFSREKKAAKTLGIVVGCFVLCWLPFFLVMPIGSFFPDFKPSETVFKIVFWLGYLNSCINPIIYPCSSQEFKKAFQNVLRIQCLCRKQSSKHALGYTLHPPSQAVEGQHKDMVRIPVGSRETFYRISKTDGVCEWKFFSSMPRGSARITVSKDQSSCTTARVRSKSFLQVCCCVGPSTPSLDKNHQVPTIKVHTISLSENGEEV
Experiment: Measurement of α1A receptor binding inhibitory activity ([3H]-Prazosin binding to CHO-K1 membrane fraction)
Conditions: concentration reducing [3H]-Prazosin (2.5 nM) binding to the membrane fraction to 50%
Protocol: b) Measurement of α1A Receptor Binding Inhibitory Activity
The following gene manipulation method was carried out according to the method described in a textbook (Miniatis et al., Molecular Cloning, Cold Spring Harbor Laboratory, 1989) or the method described in protocol attached to a reagent.
(i) Preparation of Expression Plasmid for Human Adrenaline α1A Receptor
An adrenaline α1A receptor gene was cloned from a human liver cDNA by a PCR method. A PCR reaction was performed with Gene Amp PCR System 9700 (Applied Biosystems) using 200 ng of a human liver cDNA library (TAKARA SHUZO Co., Ltd.) as a template and using TaKaRa Pyrobest DNA Polymerase (TAKARA SHUZO CO., Ltd) and adding each 50 pmol of a primer set 5′-[…]-3′ [SEQ ID No.: 1] and 5′-[…]-3[SEQ ID No.: 2] prepared making reference to a nucleotide sequence of an adrenaline α1A receptor gene which was reported by Hirasawa A. et al. (Biochem. Biophys. Res. Commun., 195, 902–909(1993)) (reaction condition: 45 cycles of 15 seconds at 94° C., and 3 minutes 30 seconds at 68° C.).
The obtained PCR fragment was digested with restriction enzymes Eco RI (TAKARA SHUZO Co. Ltd.) and Sal I. (TAKARA SHUZO Co. Ltd.), and agarose gel electrophoresis was performed to recover DNA fragments. The DNA fragments were mixed with an animal cell expression plasmid pMSR αneo (Administration No. A99–0013) which had been digested with Eco RI and Sal I, ligated with DNA Ligation Kit Ver. 2 (TAKARA SHUZO Co. Ltd.), and a competent cell of Esherichia coli JM109 was transformed to obtain a plasmid pMSR αneoA dreα1A.
(ii) Introduction of Plasmid for Expression of Human Adrenaline α1A Receptor into CHO-K1 Cell and Preparation of Membrane Fraction
CHO-K1 cells which had been subcultured in a 150 cm^2 culturing flask (Corning Coaster) using Ham F12 medium (Invitrogen) containing 10% fetal bovine serum (TRACE SCIENTIFIC) was peeled with 0.5 g/L trypsin-0.2 g/L EDTA(Invitrogen), cells were washed with D-PBS(−) (Invitrogen), centrifuged (1000 rpm, 5 min.), and suspended in D-PBS(−). […]

COc1ccccc1CCNCCCCCC(=O)c1cc2c3c(c1)CCN3C(=O)CC2.Cl [Example 20, 8-(6-[[2-(2-Methoxyphenyl)ethyl]amino]hexanoyl]-1,2,5,6-tetrahydro-4H-pyrrolo[3,2,1-ij]quinolin-4-one hydrochloride]
pIC50: 6.78
